Measurements from ChEMBL document CHEMBL4190403, “Design, synthesis, and biological evaluation of pyrazole derivatives containing acetamide bond as potential BRAFV600E inhibitors” (Bioorg Med Chem Lett, 2018).
pIC50: −log10 of the molar value.

How the values were obtained:
[1] = system: HT-29; assay: Antiproliferative activity against human HT-29 cells harboring BRAF V600E mutant after 24 hrs by MTT assay; type: functional, cell-based; conditions: HT-29, 24 h
[2] = system: A-375; assay: Antiproliferative activity against human A375 cells harboring BRAF V600E mutant after 24 hrs by MTT assay; type: functional, cell-based; conditions: A-375, 24 h
[3] = Antiproliferative activity against human WM1361 cells harboring wild-type BRAF after 48 hrs by MTT assay; type: functional, cell-based; conditions: WM1361, 48 h
[4] = target: Serine/threonine-protein kinase B-raf (Mus musculus, UniProt P28028, V600E); assay: Inhibition of full-length GST-tagged mouse BRAF V600E mutant using recombinant human full length N-terminal His-tagged MEK1 as substrate preincubated for 1 hr followed by substrate addition measured after 25 mins by Nu-page gel-based phosphor screen analysis
Serine/threonine-protein kinase B-raf, sequence (P28028 whole entry, looked up, stated change not applied): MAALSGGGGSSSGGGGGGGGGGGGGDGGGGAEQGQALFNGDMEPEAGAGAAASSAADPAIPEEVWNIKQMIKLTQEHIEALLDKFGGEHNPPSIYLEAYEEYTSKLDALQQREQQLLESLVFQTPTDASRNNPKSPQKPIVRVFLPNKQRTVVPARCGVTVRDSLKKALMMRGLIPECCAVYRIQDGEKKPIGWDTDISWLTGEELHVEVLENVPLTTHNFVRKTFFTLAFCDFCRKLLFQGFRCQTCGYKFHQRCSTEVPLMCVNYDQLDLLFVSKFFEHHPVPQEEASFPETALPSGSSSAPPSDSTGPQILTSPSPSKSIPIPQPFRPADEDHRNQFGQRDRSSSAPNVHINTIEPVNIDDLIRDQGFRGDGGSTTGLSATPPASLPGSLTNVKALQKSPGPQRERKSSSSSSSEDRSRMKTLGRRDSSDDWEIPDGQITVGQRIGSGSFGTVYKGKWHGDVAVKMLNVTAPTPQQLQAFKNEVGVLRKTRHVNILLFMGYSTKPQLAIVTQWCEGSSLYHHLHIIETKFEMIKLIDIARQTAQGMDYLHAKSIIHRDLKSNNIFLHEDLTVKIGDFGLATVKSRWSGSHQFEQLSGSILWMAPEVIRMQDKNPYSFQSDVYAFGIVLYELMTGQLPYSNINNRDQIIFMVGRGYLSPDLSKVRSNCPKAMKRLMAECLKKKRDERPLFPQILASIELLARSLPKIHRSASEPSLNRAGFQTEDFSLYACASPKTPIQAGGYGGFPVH

Row | SMILES | pIC50 [1] | pIC50 [2] | pIC50 [3] | pIC50 [4]
1 | CCn1cc(NC(=O)Cn2ccc(-c3cccc(Cl)c3)n2)cn1 | 4.89 | 4.71 | 4.58 | 5.92
2 | COc1ccc(-n2cc(NC(=O)Cn3ccc(-c4ccccn4)n3)cn2)cc1 | 4.95 | 4.95 | 4.61 | 6.32
3 | COc1cccc(-n2cc(NC(=O)Cc3ccc(OC)c(OC)c3)cn2)c1 | 5.10 | 5.46 | 4.62 | 6.44
4 | O=C(Cn1ccc(-c2ccccn2)n1)Nc1cnn(Cc2ccccc2)c1 | 4.90 | 4.70 | 4.55 | 6.26
5 | O=C(Cn1ccc2ccccc21)Nc1cnn(-c2ccccc2)c1 | 4.58 | 4.62 | 4.59 | 5.91
6 | O=C(Cn1ccc(-c2ccccn2)n1)Nc1cnn(-c2ccccc2)c1 | 4.97 | 4.97 | 4.68 | 6.28
7 | Cn1cc(NC(=O)Cn2ccc(-c3cccc(Cl)c3)n2)cn1 | 4.65 | 4.78 | 4.55 | 5.78
8 | COc1ccc(CC(=O)Nc2cnn(Cc3ccccc3)c2)cc1OC | 5.07 | 4.98 | 4.73 | 6.30
9 | O=C(Cn1ccc(-c2cccc(Cl)c2)n1)Nc1cnn(Cc2ccccc2)c1 | 5.24 | 5.49 | 4.83 | 6.47
10 | CCn1cc(NC(=O)Cn2ccc3ccccc32)cn1 | 4.30 | 4.57 | 4.32 | 5.74
11 | COc1cccc(-n2cc(NC(=O)Cn3ccc4ccccc43)cn2)c1 | 4.99 | 5.25 | 4.78 | 6.34
12 | COc1ccc(CC(=O)Nc2cnn(-c3ccc(C)cc3)c2)cc1OC | 5.06 | 5.56 | 4.78 | 6.35
13 | COc1cccc(-n2cc(NC(=O)Cn3ccc(-c4ccccn4)n3)cn2)c1 | 5.21 | 5.51 | 4.81 | 6.59
14 | CCn1cc(NC(=O)Cn2ccc(-c3ccccn3)n2)cn1 | 4.57 | 4.63 | 4.53 | 5.41
15 | COc1ccc(CC(=O)Nc2cnn(C)c2)cc1OC | 4.48 | 4.73 | 4.39 | 5.35
16 | COc1ccc(-n2cc(NC(=O)Cn3ccc4ccccc43)cn2)cc1 | 4.89 | 4.70 | 4.61 | 5.89
17 | CCn1cc(NC(=O)Cc2ccc(OC)c(OC)c2)cn1 | 4.59 | 4.75 | 4.50 | 5.44
18 | Cn1cc(NC(=O)Cn2ccc3ccccc32)cn1 | 4.45 | 4.54 | 4.44 | 5.33
19 | COc1ccc(-n2cc(NC(=O)Cc3ccc(OC)c(OC)c3)cn2)cc1 | 5.03 | 5.34 | 4.75 | 6.39
20 | Cc1ccc(-n2cc(NC(=O)Cn3ccc4ccccc43)cn2)cc1 | 4.62 | 4.61 | 4.56 | 5.63
21 | Cn1cc(NC(=O)Cn2ccc(-c3ccccn3)n2)cn1 | 4.60 | 4.63 | 4.50 | 5.60
22 | COc1ccc(CC(=O)Nc2cnn(-c3ccccc3)c2)cc1OC | 4.94 | 4.79 | 4.59 | 6.14
23 | O=C(Cn1ccc2ccccc21)Nc1cnn(Cc2ccccc2)c1 | 4.91 | 4.76 | 4.57 | 5.71
